Counter-ions that a name gives are not always drawn.
Tests used:
CD2-F1 mice = assay: LD20 in the P388/0 test mice; type: in vivo, mouse (CD2-F1); conditions: IP days 1, 5, 9, doses on a mg/kg basis
Experimental: (§1) CD2-F1 mice, of the same sex, weighing 20±3 g, are used for this test. Control and test animals are injected intraperitoneally with a suspension of ~10^6 viable P388/0 tumor cells on day 0. In each test, several dose levels which bracket the LD20 of the compound are evaluated; each dose level group contains six animals. The test compounds are prepared either in physiologic saline containing 0.05% Tween 80 or distilled water containing 5% dextrose and are administered intraperitoneally on days 1, 5, and 9 relative to tumor implant. Doses are on a mg/kg basis according to individual animals' body weights. The day of death for each animal is recorded, the median identified for each group and the ratios of median survival time for treated (T)/control (C) groups are calculated. The criterion for activity is T/C×100≥120%.
(§2) ^A Values in parentheses are the highest nontoxic dose where the
(§3) LD20 was not determined.

Herpes simplex 1/vero = Herpes simplex 1/vero plaque inhibition screen; type: cell-based
Source text: Antiviral testing against Herpes simplex 1/vero was done using plaque inhibition methods as outlined in P. Collins and D. J. Bauer, Proc. N.Y. Acad. Sci. 284, 49 (1977) and by plaque reduction methods as outlined in P. Collins and D. J. Bauer, J. Antimicrobial Chemotherapy 3, Supplement A, 73(1977). The column headings labeled Score, Toxicity, and Zone of Inhibition refer to the plaque inhibition screen while the IC50 heading to the plaque reduction screen.

[1] = tested on: Streptococcus pyogenes (CN10); assay: Antibacterial test, Streptococcus pyogenes (agar dilution); type: cell-based
Source text: (§4) Anitbacterial testing against […] (S3264) and Streptococcus pyogenes (CN10) was done with slight modifications using standard agar dilution assays as outlined in Manual of Clinical Microbiology Second Ed., E. H. Lennette. E. H. Spaulding and J. P. Traunt Eds., American Society for Microbiology, Washington, DC, 1974

Mycoplasma smegmatis = assay: Antibacterial test, Mycoplasma smegmatis (agar dilution); type: cell-based
Source text: as §4

[2] = tested on: lymphocytic leukemia L1210; assay: Lymphocytic Leukemia L1210 Test; type: in vivo, mouse (CD2-F1); conditions: median survival T/C; 120 mg/kg IP days 1, 5, 9; active if ≥125%
Source text: (§5) Methods for evaluating the antitumor activity of these compounds are essentially those used in the Tumor Panel by the Developmental Therapeutics Program, Division of Cancer Treatment, National Cancer Institute, A. Goldin, et al., Methods in Cancer Research, Vol. XVI, p. 165, Academic Press (1979). Some modifications, in dose level and schedule have been made to increase the testing efficiency.
as §1
The protocol for this test is identical to that for P388/0, except that the number of L1210 cells implanted on day 0 is ~10^5 /mouse. […]

melanotic melanoma B16 = assay: Melanotic Melanoma B16 test; type: in vivo, mouse (B6C3-F1); conditions: median survival T/C; IP days 1, 5, 9; active if >125%; dose mg/kg: 1C 100, 6G 50, 3 70, 2 75, 18B 70
Source text: as §5, §1
B6C3-F1 mice of the same sex, weighing 20±3 g, are used for this test. A suspension of B16 cells is prepared from a non-necrotic portion of solid tumor tissue obtained from a passage mouse. One gram of tumor is homogenized in 9 mL ice-cold Earle's salts solution and filtered through 1000 mesh screen to remove debris. 0.5 mL of the resulting brei is injected intraperitoneally into each animal. Dosing is carried out as in the P388/0 and L1210 tests. Days of death are recorded for a 60 day period and T/C ratio calculated as in the P388/0 and L1210 tests. The criterion for activity is T/C×100>125%.

Lewis lung carcinoma = assay: Lewis Lung Carcinoma Test; type: in vivo, mouse (BD-F1; tumor from C57B1/6); conditions: median survival T/C; 105 mg/kg days 1, 5, 9; active if ≥140%
Source text: as §5
CD2-F1 mice, of the same sex, weighing 20±3 g, are used for this test. Control and test animals are injected intraperitoneally with a suspension of ~10^6 viable P388/0 tumor cells on day 0. In each test, several dose levels which bracket the LD20 of the compound are evaluated; each dose level group contains six animals. […] The day of death for each animal is recorded, the median identified for each group and the ratios of median survival time for treated (T)/control (C) groups are calculated. […]
This tumor arose spontaneously in the lung of a C57B1/6 mouse and is maintained by subcutaneous passage in that strain. […] In each test, several dose levels which bracket the LD20 for the compound are evaluated. […] The day of death for each animal is recorded, the median identified for each group and the ratios of median survival time for treated (T)/control (C) groups are calculated. […]

colon 38 carcinoma = assay: Colon 38 Carcinoma Test; type: in vivo, mouse (C57B1/6); conditions: tumor weight T/C at day 20; 120 mg/kg IP days 1, 5, 9; active if ≤42%
Source text: as §5
This chemically-induced tumor arose in a C57B1/6 mouse and is maintained as a solid tumor in that mouse strain. The subcutaneously growing solid tumor is aseptically excised from passage mice and placed in sterile saline. The tumor is trimmed free of visible necrotic and connective tissue, then divided into 2-3 mm cubes. A cube is implanted subcutaneously in the ventral thoracie region with a sterile trochar on day 0. In each test several dose levels which bracket the LD20 for the compound are evaluated. Ten animals are included in each dose level group and thirty animals in the untreated control group. The test compounds are prepared either in physiologic saline containing 0.05% Tween 80 or distilled water containing 5% dextrose and are administered intraperitoneally on days 1, 5 and 9 after tumor implant. […] At day 20, the animals are sacrificed and the longest (L) and shortest (W) dimensions of each tumor measured with vernier calipers. Tumor weight is calculated from the formula (L× (W)^2 /2). […]

M5076 sarcoma = assay: M5076 Sarcoma Test; type: in vivo, mouse (B6C3-F1); conditions: median survival T/C; 105 mg/kg IP days 1, 5, 9; active if ≥125%
Source text: as §5, §1
This sarcoma arose as a solid tumor in the ovary of a C57B1/6 mouse and was subsequently converted to the ascitic form for intraperitoneal use. […]

[3] = LD20 in the P388/0 test mice; type: in vivo, mouse (CD2-F1); conditions: mouse, in vivo, IP days 1, 5, 9, doses on a mg/kg basis, read-out: LD20 column, value in parentheses: highest nontoxic dose where the LD20 was not determined
Experimental: as §1, §2, §3

[4] = tested on: lymphocytic leukemia P388/0; assay: Lymphocytic Leukemia P388/0 Test; type: in vivo, mouse (CD2-F1); conditions: median survival T/C; IP days 1, 5, 9; active if ≥120%; optimal dose mg/kg: 1B 121, 1C 115, 2 100, 3 100, 6G 65, 18B 88, 19H 110, 6H 60, 7 110, 9 300, 10B 1013, 11C 150, 12G 90, 5F 225, 13D 303, 14 196, 15B 250, 16 1012, 4B 180
Source text: as §5, §1

For `C[C@@H](O)C(C)(NCc1cc2c3ccccc3ccc2c2ccccc12)[C@@H](C)O` (relative stereo) [Example 5F], which LD20 (CD2-F1 mice) is on record?
The LD20 was 225 mg/kg.

For `CS(=O)(=O)O.C[C@H](O)[C@@](C)(CO)NCc1cc2c3ccccc3ccc2c2ccccc12` (relative stereo) [Example 6H, (+-)(2R*,3S*)-2-((6-Chrysenylmethyl)amino)-2-methyl-1,3-butanediol methanesulfonate], which LD20 (CD2-F1 mice) is on record?
Its LD20 is 60 mg/kg.

For `C[C@@H](O)[C@@](C)(CO)NCc1cc2c3ccccc3ccc2c2ccccc12.Cl` (relative stereo) [Example 7, (+-)(2R*,3R*)-2-((6-Chrysenylmethyl)amino)-2-methyl-1,3-butanediol hydrochloride], which LD20 (CD2-F1 mice) is on record?
The LD20 was 100 mg/kg.

What does the source list for `CC(CO)(CO)NCc1cc2c3ccccc3ccc2c2ccccc12.Cl` [Example 1B, 2-((6-Chrysenylmethyl)amino)-2-methyl-1,3-propanediol hydrochloride]?
Zone of Inhibition (Herpes simplex 1/vero): 43; MIC [1]: ≤ 10 mg/L; MIC (Mycoplasma smegmatis): ≤ 10 mg/L; LD20 (CD2-F1 mice): 140 mg/kg

Which results are given for `CC(CO)(CO)NCc1cc2c3ccccc3ccc2c2ccccc12` [Example 1C, 2-((6-Chrysenylmethyl)amino)-2-methyl-1,3-propanediol methanesulfonate]?
T/C × 100% Excluding 30 day Survivors [2]: +252%; T/C × 100% Excluding 60 day Survivors (melanotic melanoma B16): +146%; T/C × 100% Excluding 60 day Survivors (Lewis lung carcinoma): +191%; T/C × 100% (colon 38 carcinoma): 36%; T/C × 100% (M5076 sarcoma): +168%; LD20 (CD2-F1 mice): 105 mg/kg

With `Cl.OCC(CO)(CO)NCc1cc2c3ccccc3ccc2c2ccccc12` [Example 2, 2-((6-chrysenylmethyl)amino)-2-hydroxymethyl-1,3-propanediol hydrochloride] as the compound, how does the “T/C × 100% Excluding 60 day Survivors” value (melanotic melanoma B16) read?
Its value is “+144%”.

And the MIC [1]?
Its MIC is 10 mg/L.

What about the MIC (Mycoplasma smegmatis) of the same compound?
Its MIC is 10 mg/L.

And the LD20 (CD2-F1 mice)?
The LD20 was 100 mg/kg.

Which “T/C × 100% Excluding 60 day Survivors” value (melanotic melanoma B16) does the source give for `CCC(CO)(CO)NCc1cc2c3ccccc3ccc2c2ccccc12.Cl` [Example 3, 2-((6-Chrysenylmethyl)amino)-2-ethyl-1,3-propanediol hydrochloride] here?
Its value is “+144%”.

And the MIC [1]?
The MIC was 10 mg/L.

What about the MIC (Mycoplasma smegmatis) of the same compound?
Its MIC is > 100 mg/L.

And the LD20 (CD2-F1 mice)?
The LD20 was 100 mg/kg.

With `CC(CO)(CO)NCc1cc2c3ccccc3c(Cl)cc2c2ccccc12` [Example 4B, 2-(((12-Chloro-6-chrysenyl)methyl)amino)-2-methyl-1,3-propanediol methanesulfonate.1/3H2 O] as the compound, how does the LD20 (CD2-F1 mice) read?
The LD20 was 180 mg/kg.

Which LD20 (CD2-F1 mice) does the source give for `COCC(C)(CO)NCc1cc2c3ccccc3ccc2c2ccccc12.Cl` (centres unmarked) [Example 9D, 3-methoxy-2-((6-chrysenylmethyl)amino)-2-methyl-1-propanol hydrochloride] here?
The LD20 was 425 mg/kg.

For `O[C@@H]1CCC[C@H](O)[C@H]1NCc1cc2c3ccccc3ccc2c2ccccc12` [Example 10B, (1α,2β,3α)-2-((6-Chrysenylmethyl)amino)-1,3-cyclohexanediol hydrochloride], which MTD [3] is on record?
The MTD was 675 mg/kg.

For `CC(C)C(CO)(CO)NCc1cc2c3ccccc3ccc2c2ccccc12` [Example 11C, 2-((6-Chrysenylmethyl)amino)-2-isopropyl-1,3-propanediol hydrochloride 1/3 H2 O], which LD20 (CD2-F1 mice) is on record?
The LD20 was 150 mg/kg.

With `CC(CO)(CCO)NCc1cc2c3ccccc3ccc2c2ccccc12` (centres unmarked) [Example 12G, 2-((6-chrysenylmethyl)amino)-2-methyl-1,4-butanediol hyrochloride.1/3EtOH] as the compound, how does the LD20 (CD2-F1 mice) read?
The LD20 was 90 mg/kg.

Which “T/C × 100% (Excluding 30 Day Survivors)” value [4] does the source give for `CS(=O)(=O)O.C[C@H](O)C(NCc1cc2c3ccccc3ccc2c2ccccc12)[C@@H](C)O` (stereo partly drawn) [Example 13D, meso-3-((6-Chrysenylmethyl)amino)-2,4-pentanediol methanesulfonate] here?
Its value is “+200%”.

And the LD20 (CD2-F1 mice)?
Its LD20 is 675 mg/kg.

For `OCC(CO)NCc1cc2c3ccccc3ccc2c2ccccc12` [Example 14, 2-((6-Chrysenylmethyl)amino)-1,3-propanediol methanesulfonate], which LD20 (CD2-F1 mice) is on record?
The LD20 was 160 mg/kg.

Which LD20 (CD2-F1 mice) does the source give for `CCc1cc2c3ccccc3c(CNC(C)(CO)CO)cc2c2ccccc12` [Example 15B, 2-(((12-Ethyl-6-chrysenyl)methyl)amino)-2-methyl-1,3-propanediol methanesulfonate] here?
The LD20 was 150 mg/kg.

What does the source list for `CC(=O)OCC(C)(COC(C)=O)NCc1cc2c3ccccc3ccc2c2ccccc12` [Example 16, 2-((6-Chrysenylmethyl)amino)-2-methyl-1,3-propanediol diacetate]?
MIC [1]: 10 mg/L; MIC (Mycoplasma smegmatis): 10 mg/L; LD20 (CD2-F1 mice): 675 mg/kg

Which “T/C × 100% Excluding 60 day Survivors” value (melanotic melanoma B16) does the source give for `CC(C)(CO)NCc1cc2c3ccccc3ccc2c2ccccc12.Cl` [Example 18B, 2-((6-Chrysenylmethyl)amino)-2-methylpropanol hydrochloride] here?
The value was “+125%”.

And the MIC [1]?
Its MIC is ≤ 3 mg/L.

And the MIC (Mycoplasma smegmatis)?
Its MIC is 10 mg/L.

What about the LD20 (CD2-F1 mice) of the same compound?
Its LD20 is 80 mg/kg.

For `CC(CO)(CO)NCc1ccc2ccc3c4ccccc4ccc3c2c1` [Example 19H, 2-((3-Chrysenylmethyl)amino)-2-methyl-1,3-propanediol methanesulfonate], which LD20 (CD2-F1 mice) is on record?
The LD20 was 150 mg/kg.

Source: patent publication US4719046A, “Crysene derivatives” (Burroughs Wellcome Co., priority 1984, dated 1988)
